# Source: PubChem BioAssay (NCI)
#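 Cultured in 96-well plates, cells were exposed to test compound for 48 hours across five concentrations. Abbreviation: GI50, concentration required for 50% inhibition of growth. At the TGI there is no net growth.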
# System: NCI-H460 lung
# Experiment: NCI anticancer screen, dose series, 48 h
SMILES,TGI,GI50
COC(=O)/C=C(/C(=O)OC)C1(C)c2cc(C(=O)OC)c(C(=O)OC)c(N)c2C(=N)N1c1ccccc1 (stereo not drawn),> 100 µM,–
O=C(NCCNCCO)c1ccc2c(c1)oc1cc3ccccc3c(=O)n12,> 50 µM,25.4 µM
COC(=O)OC1C(O[C@H]2C[C@H]3[C@@H]4CC=C5C[C@@H](O)CC[C@]5(C)[C@H]4CC[C@]3(C)[C@H]2[C@H](C)C(=O)CCC(C)C)OCC(O)C1OC1OCC(O)C(O)C1OC(=O)c1ccc(OC)cc1 (stereo partly drawn),0.332 µM,0.00957 µM
CCOC(=O)c1nc(C)oc1C(F)(F)F,> 100 µM,–
Cc1ccc(S(=O)(=O)OCC/C(=C\[Si](C)(C)C)c2ccccc2)cc1,> 100 µM,–
COc1nc2c(c(O)c(C)c(=O)n2OC2OCC(OC(C)=O)C(OC(C)=O)C2OC(C)=O)c(=O)n1C (stereo not drawn),> 100 µM,–
CCc1ccccc1NC(=O)c1cccc([N+](=O)[O-])c1O,71 µM,–
O=C(NC1C(=O)NNC1c1cccc([N+](=O)[O-])c1)c1ccccc1 (stereo not drawn),> 100 µM,–

# System: OVCAR-3 ovarian
# Experiment: NCI anticancer screen, dose series, 48 h
SMILES,TGI,GI50
Cc1nc2ccccc2nc1CC(=O)C(=O)Nc1ccc(Cl)cc1Cl,> 100 µM,–
COc1cc(Nc2cnc3ccc(C(F)(F)F)cc3n2)cc(OC)c1OC,> 100 µM,–
O=C1[C@@H]2C(c3c(Cl)cccc3Cl)=NO[C@@H]2C(=O)N1c1ccc(Cc2ccc(N3C(=O)[C@H]4C(c5c(Cl)cccc5Cl)=NO[C@H]4C3=O)cc2)cc1,> 100 µM,–
O=C1NC2=C(CCCCC/C2=N\O)C12CCCCCC2,> 100 µM,–
CCc1cccc(C)c1NC(=O)CCc1nc(=S)[nH][nH]1,> 100 µM,–
N#C/C(=C\c1cc(OCc2ccccc2)c(OCc2ccccc2)cn1)C(N)=O,> 100 µM,–
N#CC(C(=O)C(=O)Nc1c(Cl)cccc1Cl)c1ccccc1 (stereo not drawn),> 100 µM,> 100 µM
O=C(NC12CC3CCC1CC(C3)C2)[C@@H]1CCCN1C(=O)OCc1ccccc1 (stereo partly drawn),> 100 µM,–
O=C1NC(=O)c2c1n(Cc1ccccc1)c(=O)n2Cc1ccccc1,> 100 µM,–
Cc1nc(N)nc(CCC(=O)Nc2cccc(C(F)(F)F)c2)c1-c1ccc(Cl)cc1,> 100 µM,–
COc1cc([C@@H]2c3cc4c(cc3[C@@H](NC(=O)c3ccc(C#N)cc3)C3COC(=O)[C@@H]32)OCO4)cc(OC)c1O (stereo partly drawn),4.66 µM,–
O=[N+]([O-])c1cccc(C2=NN(c3ccccc3)C3c4cc(Br)ccc4OCC23)c1 (stereo not drawn),> 100 µM,–
COc1ccc(C(=O)c2cc(OC)c(OC)c(OC)c2OC)cc1O,7.65 µM,2.83 µM
CCCCCOc1ccc(/C=N/Nc2cc(C)nc3ccc(Cl)cc23)cc1,3.58 µM,1.97 µM
COc1cc2oc(-c3ccc(O)cc3)cc(=O)c2c(O)c1C1OC(CO)C(O)C(O)C1O (stereo not drawn),> 100 µM,–
C[C@]12Cc3cn[nH]c3C(=O)C1CC[C@@H]1C2CC[C@@]2(C)C1CC[C@@H]2O (stereo partly drawn),> 100 µM,–
NNC(=O)C(=O)N/N=C1/CCCC1C(=O)CCC(=O)Nc1ccc(Cl)cc1 (stereo not drawn),> 100 µM,–
COC(=O)CCC(NC(=S)N/N=C/c1cccs1)C(=O)OC (stereo not drawn),> 100 µM,–
O=c1/c(=C/c2ccccc2[N+](=O)[O-])sc2nnc(-c3cccnc3)n12,> 100 µM,–
COC(=O)/C=C(/C(=O)OC)C1(C)c2cc(C(=O)OC)c(C(=O)OC)c(N)c2C(=N)N1c1ccccc1 (stereo not drawn),38.3 µM,–
COC(=O)OC1C(O[C@H]2C[C@H]3[C@@H]4CC=C5C[C@@H](O)CC[C@]5(C)[C@H]4CC[C@]3(C)[C@H]2[C@H](C)C(=O)CCC(C)C)OCC(O)C1OC1OCC(O)C(O)C1OC(=O)c1ccc(OC)cc1 (stereo partly drawn),16.8 µM,0.345 µM
CCOC(=O)c1nc(C)oc1C(F)(F)F,> 100 µM,–
Cc1ccc(S(=O)(=O)OCC/C(=C\[Si](C)(C)C)c2ccccc2)cc1,> 100 µM,–
CCc1ccccc1NC(=O)c1cccc([N+](=O)[O-])c1O,> 100 µM,–
O=C(NC1C(=O)NNC1c1cccc([N+](=O)[O-])c1)c1ccccc1 (stereo not drawn),> 100 µM,–
CCCCCCCCCCCC[N+]1(CCCCCCCCCCCC)CCCC(C)C1 (stereo not drawn),0.569 µM,0.197 µM

# System: OVCAR-5 ovarian
# Experiment: NCI anticancer screen, dose series, 48 h
SMILES,TGI,GI50
Cc1nc2ccccc2nc1CC(=O)C(=O)Nc1ccc(Cl)cc1Cl,> 100 µM,–
COc1cc(Nc2cnc3ccc(C(F)(F)F)cc3n2)cc(OC)c1OC,> 100 µM,–
O=C1[C@@H]2C(c3c(Cl)cccc3Cl)=NO[C@@H]2C(=O)N1c1ccc(Cc2ccc(N3C(=O)[C@H]4C(c5c(Cl)cccc5Cl)=NO[C@H]4C3=O)cc2)cc1,> 100 µM,–
O=C1NC2=C(CCCCC/C2=N\O)C12CCCCCC2,> 100 µM,–
CCc1cccc(C)c1NC(=O)CCc1nc(=S)[nH][nH]1,> 100 µM,–
N#C/C(=C\c1cc(OCc2ccccc2)c(OCc2ccccc2)cn1)C(N)=O,> 100 µM,–
N#CC(C(=O)C(=O)Nc1c(Cl)cccc1Cl)c1ccccc1 (stereo not drawn),–,> 100 µM
COC(=O)C1C(C(=O)OC)C2C(=O)C3C(C(=O)OC)C(C(=O)OC)C3C(=O)C12 (stereo not drawn),> 100 µM,–
O=C(NC12CC3CCC1CC(C3)C2)[C@@H]1CCCN1C(=O)OCc1ccccc1 (stereo partly drawn),> 100 µM,–
O=C1NC(=O)c2c1n(Cc1ccccc1)c(=O)n2Cc1ccccc1,> 100 µM,–
Cc1nc(N)nc(CCC(=O)Nc2cccc(C(F)(F)F)c2)c1-c1ccc(Cl)cc1,> 100 µM,–
COc1cc([C@@H]2c3cc4c(cc3[C@@H](NC(=O)c3ccc(C#N)cc3)C3COC(=O)[C@@H]32)OCO4)cc(OC)c1O (stereo partly drawn),8.53 µM,–
O=[N+]([O-])c1cccc(C2=NN(c3ccccc3)C3c4cc(Br)ccc4OCC23)c1 (stereo not drawn),> 100 µM,–
COc1ccc(C(=O)c2cc(OC)c(OC)c(OC)c2OC)cc1O,> 100 µM,17.5 µM
CCCCCOc1ccc(/C=N/Nc2cc(C)nc3ccc(Cl)cc23)cc1,3.23 µM,1.82 µM
COc1cc2oc(-c3ccc(O)cc3)cc(=O)c2c(O)c1C1OC(CO)C(O)C(O)C1O (stereo not drawn),> 100 µM,–
C[C@]12Cc3cn[nH]c3C(=O)C1CC[C@@H]1C2CC[C@@]2(C)C1CC[C@@H]2O (stereo partly drawn),> 100 µM,–
NNC(=O)C(=O)N/N=C1/CCCC1C(=O)CCC(=O)Nc1ccc(Cl)cc1 (stereo not drawn),> 100 µM,–
COC(=O)CCC(NC(=S)N/N=C/c1cccs1)C(=O)OC (stereo not drawn),> 100 µM,–
O=c1/c(=C/c2ccccc2[N+](=O)[O-])sc2nnc(-c3cccnc3)n12,> 100 µM,–
COC(=O)/C=C(/C(=O)OC)C1(C)c2cc(C(=O)OC)c(C(=O)OC)c(N)c2C(=N)N1c1ccccc1 (stereo not drawn),> 100 µM,–
COC(=O)OC1C(O[C@H]2C[C@H]3[C@@H]4CC=C5C[C@@H](O)CC[C@]5(C)[C@H]4CC[C@]3(C)[C@H]2[C@H](C)C(=O)CCC(C)C)OCC(O)C1OC1OCC(O)C(O)C1OC(=O)c1ccc(OC)cc1 (stereo partly drawn),2.63 µM,0.0982 µM
CCOC(=O)c1nc(C)oc1C(F)(F)F,> 100 µM,–
Cc1ccc(S(=O)(=O)OCC/C(=C\[Si](C)(C)C)c2ccccc2)cc1,> 100 µM,–
COc1nc2c(c(O)c(C)c(=O)n2OC2OCC(OC(C)=O)C(OC(C)=O)C2OC(C)=O)c(=O)n1C (stereo not drawn),> 100 µM,–
CCc1ccccc1NC(=O)c1cccc([N+](=O)[O-])c1O,65.1 µM,–
O=C(NC1C(=O)NNC1c1cccc([N+](=O)[O-])c1)c1ccccc1 (stereo not drawn),> 100 µM,–
CCCCCCCCCCCC[N+]1(CCCCCCCCCCCC)CCCC(C)C1 (stereo not drawn),2.29 µM,1.06 µM
